Where a name gives a salt, the structure may show the parent alone. Read-outs that look alike come from different tables or passages of the source.
Tests used:
[1] = test system: endometrial tumour organoid Endometrium 12; details: 72 hours; EpigenAU/11 0.66 mg/ml, carboplatin 100 nM, paclitaxel 100 nM
Experimental: (§1) 39A bladder 38, 39B bladder 41, 39C breast 203, 39D Endometrium 12. […] Breast organoids (Breast 203): Treated sequentially with paclitaxel (P, 50 nM)+carboplatin (C, 100 nM) for 72 hours, followed by epirubicin (E, 1 μM)+cyclophosphamide (Cy 7 μM) for an additional 72 hours. Endometrial organoid (Endometrium 12): Treated with carboplatin (C, 100 nM), paclitaxel (P, 100 nM), or their combination for 72 hours. ATP content, measured by CellTiter-Glo® 3D, is expressed as a percentage of cell viability, with untreated controls set at 100%. Statistical analysis was performed using one-way ANOVA followed by Dunnett's test, with significant differences denoted by p<0.002 (**) and p<0.0001 (****). Data are presented as mean±SD.

[2] = test system: FaDu, A431 and HuDe cells; assay: Intracellular pH (pHrodo Green AM); format: cell-based, human; details: EpigenAU/11 0.66 mg/ml or HCl, one hour
From the text: Cells were labelled with pHrodo™ Green AM Intracellular pH Indicator according to manufacturers' instructions. pH values were normalized with respect to cell number, measured by Nuclear Mask Red staining.

[3] = test system: explanted biopsies from FaDu graft; format: cell-based, human cells grown in immunocompromised mice; details: 72 hours ex vivo; EpigenAU/11 50 mg/ml (pH 5.6), cisplatin 150 μg/ml, HCl to pH 5.6
Experimental: Analysis of cell viability in explanted biopsies from the FaDu (9A) and A431 (9B) cell lines was performed after 72 hours of ex vivo treatment. […] Cell viability was analysed using a flow cytometer with the Pacific Blue™ Annexin V/SYTOX™ AADvanced™ Apoptosis Kit, following the manufacturer's instructions. Viability is expressed as a percentage, with untreated controls set at 100%. One-way ANOVA analysis followed by Dunnett's test confirmed significant differences among the groups. Data are represented as mean±SD; *p<0.03;***p<0.0002.
(§3) Analysis of cell viability in explanted biopsies from the FaDu cell lines was performed after 72 hours of ex vivo treatment. […] Cell viability was analysed using a flow cytometer with the Pacific Blue™ Annexin V/SYTOX™ AADvanced™ Apoptosis Kit, following the manufacturer's instructions. Viability is expressed as a percentage, with untreated controls set at 100%. […]
as §3
Following the 72-hour treatment period, cell viability was analysed using flow cytometry.

[4] = test system: explanted biopsies from A431 graft; assay: Ex vivo explanted biopsies, cell viability by flow cytometry (Annexin V); format: cell-based, human cells grown in immunocompromised mice; details: 72 hours ex vivo; EpigenAU/11 50 mg/ml (pH 5.6), cisplatin 150 μg/ml, HCl to pH 5.6
Experimental: Analysis of cell viability in explanted biopsies from the FaDu (9A) and A431 (9B) cell lines was performed after 72 hours of ex vivo treatment. […] Cell viability was analysed using a flow cytometer with the Pacific Blue™ Annexin V/SYTOX™ AADvanced™ Apoptosis Kit, following the manufacturer's instructions. Viability is expressed as a percentage, with untreated controls set at 100%. […] Data are represented as mean±SD; *p<0.03;***p<0.0002.
Analysis of cell viability in explanted biopsies from the A431 cell lines was performed after 72 hours of ex vivo treatment. […] Cell viability was analysed using a flow cytometer with the Pacific Blue™ Annexin V/SYTOX™ AADvanced™ Apoptosis Kit, following the manufacturer's instructions. Viability is expressed as a percentage, with untreated controls set at 100%. […] Data are represented as mean±SD; **p<0.02.
To further substantiate these findings, an ex vivo test was conducted using explanted biopsies from the FaDu and A431 cell lines. These biopsies were generated by injecting the cells into immunocompromised mice, thereby creating a more intricate three-dimensional structure that closely mimics the tumour microenvironment. […] Following the 72-hour treatment period, cell viability was analysed using flow cytometry.

[5] = test system: osteosarcoma spheroids (143B, SaOS-2, U-2 OS); assay: 3D spheroids toxicity, Cell Titer-Glo 3D (ATP); format: cell-based; details: 72 hours; EpigenAU/11 0.22 mg/ml, CDDP 15 μg/ml
Experimental: The Cell Titer-Glo® 3D Viability Assay was used to quantify ATP as a marker of cell viability. Results are expressed as the survival ratio (%) between treated cells and their corresponding untreated controls.
In addition to the findings above, several partners contributed to the development of more complex in vitro models, including 3D spheroids, which better mimic the three-dimensional structure of tumours and their microenvironment.
The viability of both control and treated cells was assessed 72 hours after the start of treatment by quantifying ATP levels using the Cell Titer-Glo® 3D Viability Assay following the manufacturer's instructions.

[6] = test system: non-cancerous spheroids (MSC, HuDe); assay: 3D spheroids toxicity, Cell Titer-Glo 3D (ATP); format: cell-based, human; details: 72 hours; EpigenAU/11 0.22 mg/ml, CDDP 15 μg/ml
From the text: Additionally, two 3D spheroids from non-cancerous cell lines were included in the study: • MSC (BM-derived Mesenchymal Stromal Cells): Multipotent stromal cells derived from bone marrow. • HuDe (Human Dermal Fibroblasts): Non-cancerous dermal fibroblast cells.

[7] = test system: biopsies derived from the FaDu graft; assay: Genome-wide gene expression profiling, ex vivo; format: cell-based, human; details: 6 hours; EpigenAU/11 50 mg/ml, cisplatin 150 μg/ml, alone and combined
A431 xenografts = format: in vivo, athymic mice; details: excised at end of 15-day treatment, six mice
Experimental: Tumour growth curve of A431 xenografts in athymic mice over 15 days of treatment. […] Tumour volume was measured every other day. Data are represented as mean±SEM; **p<0.02; ****p<0.001.
In this trial, athymic mice were subcutaneously injected with 1×10^6 A431 cells into their flank to develop xenograft tumours.

FaDu xenografts [8] = details: for MITOSIS (amount of mitosis in 2.37 mm^2; 10x): H&E staining of excised tumours
Experimental: Tumour growth curve of FaDu xenografts in athymic mice over 27 days of treatment. […] Tumour volume was measured every other day. Data are represented as mean±SEM; *p<0.05; **p<0.02. One-way ANOVA followed by Fisher's LSD test was used for statistical analysis.
In this investigation, an in vivo trial utilizing FaDu cells was performed to explore this interaction.
All treatments commenced when tumours reached a volume of 0.1 cm^3.
The response in mice was evaluated using criteria akin to RECIST 1.1 guidelines.
For this purpose, immunocompromised mice bearing xenografted FaDu head and neck squamous carcinoma cells were included in the study once tumours reached a volume of 100 mm^3.

[9] = design: species or system mice; details: mouse, in vivo
Experimental: Furthermore, to better understand the potential systemic toxicity of the treatments, an Irwin test was conducted, evaluating a range of physiological and behavioural parameters, including general behaviour, CNS excitement, movement coordination, muscle tone, reflex responses, and autonomic signs.
Parameters assessed include general behaviour, central nervous system (CNS) excitement, movement coordination, muscle tone, reflex responses, and autonomic signs.
(§2) The risk (intended as side effects) was estimated through the observation of behavioural parameters (impacting the behaviour itself, the locomotor system, muscle strength and nervous reflexes) and through the potential weight loss of the animal.

FaDu xenografts [10] = format: in vivo, mice; design: key to Loss of Straightening reflex / Loss of Cleaning / Loss of Curiosity / Loss of Reactivity / Loss of Spontaneous activity: untreated animal value = 0, plus treated animal value
From the text: as §2
Data obtained by animal testing, considered in the context of the risk, are behavioural parameters and body weight loss at the end of experimentation.
The behavioural parameters monitored are listed below: • 1. Loss of Spontaneous activity • 2. Loss of Cleaning • 3. Loss of Curiosity • 4. Loss of Reactivity • 5. Loss of Straightening reflex • 6. Loss of Physical strength • 7. Impairment of Palpebral opening • 8. Palpebral reflex • 9. Tremors • 10. Pallor • 11. Stereotypies • 12. Passivity
The values of the parameters 1-8 are normalized as: “Not treated animal value” (always equal to 0)+“Treated animal value”.
The values of the parameters 9-12 are normalized as: “Not treated animal value”-“Treated animal value”.
The potential weight loss of the treated animals was also assessed.” Data were processed using the formula: 1−[“Body weight of treated animals (day of observation: 27)/body weight of untreated animals (day of observation: 19)]
Data were calculated as “Reduction in the size of tumour mass” by the formula: 1−[“Tumour mass size collected from treated animals (day of observation: 27)/Tumour mass size collected from untreated animals (day of observation: 19)]

[11] = test system: bladder tumour organoid Bladder 41; assay: Tumour organoid viability with chemotherapeutics, CellTiter-Glo 3D; format: cell-based, human; details: Bladder Cancer patient-derived tumour organoids; chemotherapy combined with EpigenAU/11
Experimental: as §1

[12] = test system: Head and Neck Cancer patient-derived tumour organoids; assay: EpigenAU/11 combinations with chemotherapeutics on patient-derived tumour organoids (summary table); format: cell-based; details: chemotherapy combined with EpigenAU/11

In the case of N.N.O=C([O-])C1(C(=O)[O-])CCC1.[Pt+2] [carboplatin], the “viability (ATP, untreated = 100%)” value [1] is reported as 85.1%.

In the case of Cl [HCl, hydrochloric acid], the “intracellular pH” value [2] is reported as “no observable effects”, the cell death [3] is reported as “no significant signs of cell death” and the cell death [4] is reported as “no significant signs of cell death”.

With N.N.[Cl][Pt][Cl] [Cisplatin] the “viability (ATP levels) of cancerous spheroids” value [5] was “indiscriminately killed both cancerous and healthy cells”, the “viability (ATP levels) of healthy spheroids” value [6] was “indiscriminately killed both cancerous and healthy cells” and the cell death [3] was “around 25%”. The cell death [4] was “around 30%”, the “modulation of cancer-related pathways (gene expression)” value [7] was “comparable downregulatory effect across many of the same pathways” and the MEAN tumour mass (A431 xenografts) was 368 mg. The tumour progression (FaDu xenografts [8]; 27 days, cisplatin 2 mg/kg i.p. every two days) was “stabilization of the disease”, the “MITOSIS (amount of mitosis in 2.37 mm^2; 10x)” value (FaDu xenografts [8]) was 14 (±8) and the “MITOSIS (amount of mitosis in 2.37 mm^2; 10x)” value (FaDu xenografts [8]; listed as cisplatin) was 14. For the same compound, the “Size of tumor masses (Mean)” value (FaDu xenografts [8]; day of observation 27) was 0.50, the MEAN tumour mass (FaDu xenografts [8]; explanted after 27 days of treatment, five mice) was 454 mg and the “Body weight (Mean)” value (FaDu xenografts [8]; mouse, in vivo) was 29.12. For the same compound, the “reduction in overall biological functions” value [9] was 30-40%, the Weight loss (FaDu xenografts [10]; 1−[body weight treated day 27/untreated day 19]) was 0.22 and the “Reduction in the size of tumour mass” value (FaDu xenografts [10]; 1−[tumour mass size treated day 27/untreated day 19]) was 0.64. The “IN VIVO BENEFIT SCORE” value (FaDu xenografts [10]; mouse, in vivo) was 0.64, the “Impairment of Palpebral opening” value (FaDu xenografts [10]; normalised risk parameter) was 2.00 and the “Loss of Cleaning” value (FaDu xenografts [10]; normalised risk parameter) was 1.50. The “Loss of Curiosity” value (FaDu xenografts [10]; normalised risk parameter) was 1.60, the “Loss of Palpebral reflex” value (FaDu xenografts [10]; normalised risk parameter) was 1.20 and the “Loss of Physical strength” value (FaDu xenografts [10]; normalised risk parameter) was 1.30. For the same compound, the “Loss of Reactivity” value (FaDu xenografts [10]; normalised risk parameter) was 1.40, the “Loss of Spontaneous activity” value (FaDu xenografts [10]; normalised risk parameter) was 1.80 and the “Loss of Straightening reflex” value (FaDu xenografts [10]; normalised risk parameter) was 1.40. For the same compound, the Pallor (FaDu xenografts [10]; normalised risk parameter) was 2.00, the Passivity (FaDu xenografts [10]; normalised risk parameter) was 1.10 and the Stereotypies (FaDu xenografts [10]; normalised risk parameter) was 0.00. For the same compound, the Tremors (FaDu xenografts [10]; normalised risk parameter) was 0.80, the “IN VIVO RISK SCORE” value (FaDu xenografts [10]; sum of risk parameters) was 16 and the “Cooperative Effect with EpigenAU/11” value [11] was “YES”. For the same compound, the “Cooperative Effect with EpigenAU/11” value [12] was “YES”.
